The source of these data is article PMC8490453, “PbrRALF2-elicited reactive oxygen species signaling is mediated by the PbrCrRLK1L13-PbrMPK18 module in pear pollen tubes” (Horticulture Research, 2021).

Data set [1] relates to PbrRALF7. Description: Expression of PbrRALF7 after PbrRALF2-ODN treatment. The format is cell-based, pear. On the procedure: (§1) The MIQE guidelines were followed for quantitative RT-PCR (qRT–PCR) experiments. The Plant Total RNA Isolation Kit (FOREGENE, Chengdu, China) was used to extract total RNA, and DNase I was used to eliminate genomic DNA contaminants. A RevertAid First Strand cDNA Synthesis Kit was used to reverse transcription purified total RNA (3 μg) (Thermo Scientific, USA). Then, using SYBR Green Master Mix on a LightCycler® 480 II (Roche, Switzerland), quantitative PCR (qPCR) was performed on 20-μl samples according to the manufacturer’s instructions. The thermal cycle was performed at 95 °C for 5 min, followed by 45 cycles of 15 s at 95 °C and 15 s at 60 °C. The pear TUBULIN gene was used as an internal control, and relative expression levels were evaluated using the 2CT2 − △△CT method, as previously described. The primers for RT-PCR and qRT–PCR of PbrRALFs, PbrCrRLK1L13, PbrMPK18, and PbrTUB in pear are presented in Supplementary Tables S5 and S6, respectively.
(§2) Twenty-mer phosphorothioate oligonucleotides against PbrRALF2, PbrCrRLK1L13, PbrMPK18, and their sense controls (s-ODN) were synthesized with three 5′- and 3′-phosphorothioate-modified bases, and a scrambled mismatch sequence was used as a control. […] More than 35 pollen tubes were measured in each treatment, and the experiments were repeated at least three times. […]

In data set [2] the test system is PbrRALF11. Description: Expression of PbrRALF11 after PbrRALF2-ODN treatment. The format is cell-based, pear. How it is done:
as §1, §2

Data set [3] deals with FER. The conditions noted are these: Arabidopsis; cited from earlier work. The source says: (§3) PbrCrRLK1L13 interacts with its PbrRALF2 ligand via exJM at the plasma membrane (Fig. 2B), similar to the region where LORELEI and LLG1 physically interact with FER[42], thus implying a potentially conserved role for the exJM region of CrRLK1Ls. […] Such phosphorylation by peptides has similarly been observed for multiple receptor-like kin ...

Data set [4] deals with BAK1. The note with it: Arabidopsis; cited from earlier work.
Excerpt: as §3

In data set [5] the target is GST-PbrCrRLK1L13-ECD (pear (Pyrus bretschneideri)). Description: SPR; Biacore T200, 25 °C; PbrCrRLK1L13 immobilised on a CM5 chip by amine coupling; running buffer 10 mM HEPES, 150 mM NaCl, 3 mM EDTA, pH 7.4; PbrRALF2 injected at 15, 30, 60 and 120 nM; steady-state 1:1 model; apparent.
For data set [6] the target is unchanged.
For data set [7] the target is unchanged. Description: ITC; MicroCal ITC200, 25 °C; 200 μM PbrRALF2 in the syringe titrated into 20 μM PbrCrRLK1L13 extracellular domain; 50 mM phosphate pH 7.4, 150 mM NaCl; one set of sites model; apparent. For orientation: In ITC the heat of successive injections is recorded.

In the oligonucleotide strings, read from the 5' end, every base follows the letter of its sugar. An asterisk marks phosphorothioate; unmarked linkages are phosphodiester. Other units and linkages are bracketed, terminal groups are in braces. A string of capitals states the bases alone. d = 2'-deoxy (DNA)

On to “PbrRALF2-ODN-1: antisense ODN GTGATGGCGCTGCAGCCGCGG (antisense dG*dT*dG*dAdTdGdGdCdGdCdTdGdCdAdGdCdCdG*dC*dG*dG)”, for which, in data set [1], the “expression level of PbrRALF7” value is “not affected”. Besides, the “expression level of PbrRALF11” value in data set [2] is given as “not affected”.
Regarding “PbrRALF2-ODN-2: antisense ODN GCGCACCGTAGCTGATGT (antisense dG*dC*dG*dCdAdCdCdGdTdAdGdCdTdGdA*dT*dG*dT)”, the “expression level of PbrRALF7” value in data set [1] is given as “not affected”. Moreover, the “expression level of PbrRALF11” value in data set [2] was “not affected”.
For the substance “RALF1: Arabidopsis RALF1, ligand of FER (ATTKYISYQSLKRNSVPCSRRGASYYNCQNGAQANPYSRGCSKIARCRS; UniProt Q9SRY3 72-120, looked up)”, the FER phosphorylation result in data set [3] is on record as “triggers FER”. Also, the BAK1 phosphorylation result in data set [4] was “BAK1[41] phosphorylation”.
“recombinant PbrRALF2 (His-PbrRALF fusion protein from pCold-TF) (ligand)”: the Kd came to 73 nM in data set [5] and 512 nM in data set [7]. The IC50 of inhibition of pear pollen tube growth by E. coli-expressed PbrRALF2 (0.025-1 μM) in data set [6] was 92 nM.
